≈ marks a conversion by molar mass, not a printed value.
Test system: VZV strain Ellen
Assay: VZV Antiviral (ELISA) Assay in human foreskin fibroblast cells
Format: cell-based, varicella-zoster virus
Settings: for IC50 / inhibition at 10 µg/mL: Human alphaherpesvirus 3, Fibroblast; for IC50: read-out: IC50 (ug/ml) VZV; for inhibition at 10 µg/mL: read-out: % inhibition 10 ug/ml VZV, 10 ug/ml
Method: For the generation of stock VZV to be used in the assay, VZV strain Ellen (ATCC #VR-1367) is used to infect human foreskin fibroblast (HFF) cells at low multiplicity (less than 0.1) and incubated overnight at 37° C. in 5% CO2. After the overnight incubation, the mixture of uninfected and VZV-infected HFF infected cells are then harvested and added to each well of 96-well plates (3.5×10^4 cells in 100 μl DMEM supplemented with 2% FBS) which contain test compound or the reference standard drug control (in 100 μl DMEM supplemented with 2% FBS per well). These cells are incubated for three days at 37° C. in 5% CO2, then fixed for ELISA assay. The primary antibody is murine anti-VZV glycoprotein II monoclonal antibody (Applied Biosystems, Inc. #13-145-100) and the secondary antibody is goat anti-mouse IgG linked to β-galactosidase. Thus the extent of viral replication is determined by assessing β-galactosidase activity by quantifying the generation of the 4-methyl umbelliferone fluorescent cleavage product after addition of the methyl umbelliferyl-β-D-galactoside (Sigma #M1633) substrate on a microfluorimeter (365 nm for excitation and 450 nm for emission). Antiviral activity (IC50) of the test compound is determined by comparing the flourescence obtained in absence of compound to that obtained in the presence of compound.

Row | SMILES | IC50 (ug/ml) VZV | % inhibition 10 ug/ml VZV | IC50 | inhibition at 10 µg/mL
1 | COc1cc(OC)c(NC(=S)Nc2ccc(NC(=O)c3cccc(NS(C)(=O)=O)c3)cc2)cc1Cl [Example 137] | >15 µg/mL | 72% |  | 
2 | COc1cc(OC)c(NC(=S)Nc2ccc(NC(=O)c3ccccc3-c3ccccc3)cc2)cc1Cl [Example 182] | >10 µg/mL | 32% |  | 
3 | CCC(C)Cc1cc(NC(=S)Nc2ccc(NC(=O)c3ccccc3F)cc2)cc(C(F)(F)F)c1 (stereo not shown) [Example 577] | >7.5 µg/mL |  |  | 
4 | CC(C)Cc1cc(NC(=S)Nc2ccc(NC(=O)c3ccccc3F)cc2)cc(C(F)(F)F)c1 [Example 578] | >10 µg/mL |  |  | 
5 | O=C(Nc1ccc(NC(=S)NCc2cc(F)cc(F)c2)cc1)c1ccccc1F [Example 580] | >10 µg/mL |  |  | 
6 | O=C(Nc1ccc(NC(=S)NCc2cc(Cl)cc(Cl)c2)cc1)c1ccccc1F [Example 583] | 10 µg/mL (≈ 22.3 µM) |  |  | 
7 | O=C(Nc1ccc(NC(=S)NCc2cc(F)cc(C(F)(F)F)c2)cc1)c1ccccc1F [Example 586] |  |  | > 10 µg/mL | 
8 | O=C(Nc1ccc(NC(=S)NCc2ccc(N3CCCCC3)c(C(F)(F)F)c2)cc1)c1ccccc1F [Example 616] | >10 µg/mL |  |  | 
9 | O=C(Nc1ccc(NC(=S)NCc2ccc(F)c(C(F)(F)F)c2)cc1)c1ccccc1F [Example 623] |  |  | > 10 µg/mL | 
10 | O=C(Nc1ccc(NC(=S)NCCOc2ccccc2)cc1)c1ccccc1F [Example 625] |  |  | 4 µg/mL (≈ 9.77 µM) | 
11 | COc1ccc(NC(=S)Nc2ccc(NC(=O)c3ccccc3F)cc2)cc1I [Example 810] |  |  | > 7.5 µg/mL | 
12 | CC(NC(=S)Nc1ccc(NC(=O)c2ccccc2I)cc1)c1ccc(F)cc1 (stereo not shown) [Example 812] |  |  | 3.4 µg/mL (≈ 6.55 µM) | 
13 | COc1ccc(NC(=S)Nc2ccc(NC(=O)c3ccccc3OC)cc2)cc1Cl [Example 818, N-{4-[3-(3-Chloro-4-methoxy-phenyl)-thioureido]-phenyl}-2-methoxy-benzamide] |  |  | > 10 µg/mL | 32%
14 | COc1ccc(NC(=S)Nc2ccc(NC(=O)c3cccc(F)c3)cc2)cc1Cl [Example 822, N-{4-[3-(3-Chloro-4-methoxy-phenyl)-thioureido]-phenyl}-3-fluoro-benzamide] |  |  | > 10 µg/mL | 0%
15 | COc1ccc(NC(=S)Nc2ccc(NC(=O)c3ccc(F)cc3)cc2)cc1Cl [Example 823, N-{4-[3-(3-Chloro-4-methoxy-phenyl)-thioureido]-phenyl}-4-fluoro-benzamide] |  |  | > 10 µg/mL | 7%
16 | COc1cc(OC)c(NC(=S)Nc2ccc(NC(=O)c3ccccc3C)cc2)cc1Br [Example 829, N-{4-[3-(5-Bromo-2,4-dimethoxy-phenyl)-thioureido]-phenyl}-2-methyl-benzamide] |  |  | > 15 µg/mL | 50%
17 | CSc1ccc(NC(=S)Nc2ccc(NC(=O)c3c(F)cccc3F)cc2)cc1Cl [Example 848, N-{4-[3-(3-Chloro-4-methylsulfanyl-phenyl)-thioureido]-phenyl}-2,6-difluoro-benzamide] |  |  | 1.3 µg/mL (≈ 2.8 µM) | 101%
18 | CC(C)(C)c1cccc(NC(=S)Nc2ccc(NC(=O)c3ccccc3F)cc2)c1 [Example 869, N-{4-[3-(3-tert-Butyl-phenyl)-thioureido]-phenyl}-2-fluoro-benzamide] |  |  | 3 µg/mL (≈ 7.12 µM) | 77%
19 | O=C(Nc1ccc(NC(=S)Nc2ccc(C(F)(F)F)c(Cl)c2)cc1)c1ccccc1F [Example 911, N-{4-[3-(3-Chloro-4-trifluoromethyl-phenyl)-thioureido]-phenyl}-2-fluoro-benzamide] |  |  | > 10 µg/mL | 38%
20 | O=C(Nc1ccc(NC(=S)Nc2ccc(I)c(Cl)c2)cc1)c1ccccc1F [Example 916, N-{4-[3-(3-Chloro-4-iodo-phenyl)-thioureido]-phenyl}-2-fluoro-benzamide] |  |  | > 10 µg/mL | 30%
21 | CC(NC(=S)Nc1ccc(NC(=O)c2ccnc3ccccc23)cc1)c1ccc(F)cc1 (stereo not shown) [Example 989, Quinoline-4-carboxylic acid (4-{3-[1-(4-fluoro-phenyl)-ethyl]-thioureido}-phenyl)-amide] |  |  | 3 µg/mL (≈ 6.75 µM) | 

Reference: patent US6462055B2, “Alpha-methylbenzyl-containing thiourea inhibitors of herpes viruses containing a phenylenediamine group” (Wyeth, priority 1998, dated 2002)
